Reference: PMC12979031 (Neuro-oncology, 2026)

What was measured:
[1] = system: recurrent IDHmt gliomas; details: second study in this population; cited from earlier work
[2] = Surgical; assay type: in vivo; details: human, oral, 60 mg
[3] = system: PARP1/2; details: read-out: in vitro IC50 for PARP1/2 inhibition; cited from earlier work

fraction unbound ([2]; enhancing tumor)	Kp ([2]; non-enhancing tumor / plasma)	Kp uu ([2]; non-enhancing tumor / plasma)	fraction unbound ([2]; non-enhancing tumor)	fraction unbound ([2]; plasma)	SMILES	responses [1]	IC50 [3] [nM]
					O=C(c1cc(Cc2n[nH]c(=O)c3ccccc23)ccc1F)N1CCN(C(=O)C2CC2)CC1 [olaparib]	no responses	
0.076	0.23	0.92	0.083	0.031	C[C@]12CCCN1CC1=NNC(=O)c3cc(F)cc4[nH]c2c1c34 [pamiparib]		~1
